Assay results taken from PubChem BioAssay AID248 (DTP/NCI, 2004).
“And” between values parts separate entries of the source, which are not always exact repeats. Equal entries are not always repeated. Inconclusive results and toxic doses are left out. No stated cut-off is given here; in the data, active means T/C of 150% or more; inactive means T/C below 125%. Peptide text beside a SMILES is read from it. * marks the point of attachment. Trt = c1ccc(C(c2ccccc2)(c2ccccc2)*)cc1; Boc = CC(C)(C)OC(=O)*

System: L1210 leukemia ip in BDF1 mice, survival T/C
Assay: NCI In Vivo Anticancer Drug Screen. Data for tumor model L1210 Leukemia (intraperitoneal) in B6D2F1 (BDF1) mice
Details: endpoint: mean survival time, higher = longer survival
Method in brief: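 Antitumor effect is assessed in tumor-bearing animals. Survival in the compound arm is compared with a vehicle-dosed control arm and expressed as their quotient.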

[1] = dose: 25.0 mg/kg/injection, schedule: Q04DX003 (ip), vehicle: saline
[2] = dose: 100.0 mg/kg/injection, schedule: Q04DX002 (ip), vehicle: Klucel (hydroxypropylcellulose) (HPC)
[3] = dose: 400.0 mg/kg/injection, schedule: Q04DX002 (ip), vehicle: Klucel (hydroxypropylcellulose) (HPC)
[4] = dose: 50.0 mg/kg/injection, schedule: Q04DX003 (ip), vehicle: saline with Tween-80
[5] = dose: 100.0 mg/kg/injection, schedule: Q01DX009 (ip), vehicle: saline with Tween-80
[6] = dose: 100.0 mg/kg/injection, schedule: Q04DX003 (ip), vehicle: saline with Tween-80
[7] = dose: 200.0 mg/kg/injection, schedule: Q01DX009 (ip), vehicle: saline with Tween-80
[8] = dose: 200.0 mg/kg/injection, schedule: Q04DX003 (ip), vehicle: saline with Tween-80
[9] = dose: 400.0 mg/kg/injection, schedule: Q01DX009 (ip), vehicle: saline with Tween-80
[10] = dose: 400.0 mg/kg/injection, schedule: Q04DX003 (ip), vehicle: saline with Tween-80

Measured: T/C

O=C(Nc1ccc(C2=NCC(O)CN2)cc1)c1ccc(C(=O)Nc2ccc(C3=NCC(O)CN3)cc2)c(Cl)c1 (stereo unspecified)
inactive: dose: 12.0 micrograms/kg/injection, schedule: Q01DX015 (ip), vehicle: water 96 % of control | dose: 25.0 micrograms/kg/injection, schedule: Q01DX015 (ip), vehicle: water 114 % of control | dose: 50.0 micrograms/kg/injection, schedule: Q01DX015 (ip), vehicle: water 96 % of control | dose: 75.0 micrograms/kg/injection, schedule: Q01DX015 (ip), vehicle: water 102 % of control

O=C(OC(=O)C1CC1)C1CC1
inactive: dose: 12.5 mg/kg/injection, schedule: Q01DX009 (ip), vehicle: saline 96 % of control | dose: 25.0 mg/kg/injection, schedule: Q01DX009 (ip), vehicle: saline 92 % of control | [1] 90 % of control | dose: 50.0 mg/kg/injection, schedule: Q01DX009 (ip), vehicle: saline 96 % of control and 111 % of control | dose: 50.0 mg/kg/injection, schedule: Q04DX003 (ip), vehicle: saline 88 % of control | dose: 100.0 mg/kg/injection, schedule: Q04DX003 (ip), vehicle: saline 96 % of control and 101 % of control

COc1ccc(C(=O)NCc2cccs2)cc1
inactive: [2] 91 % of control | dose: 200.0 mg/kg/injection, schedule: Q04DX002 (ip), vehicle: Klucel (hydroxypropylcellulose) (HPC) 102 % of control | [3] 97 % of control

Cc1ccc(CCCC(CC(=O)O)C(=O)O)cc1 (stereo unspecified)
inactive: dose: 12.5 mg/kg/injection, schedule: Q01DX001 (ip), vehicle: saline with Tween-80 100 % of control | dose: 25.0 mg/kg/injection, schedule: Q01DX001 (ip), vehicle: saline with Tween-80 98 % of control | dose: 50.0 mg/kg/injection, schedule: Q01DX001 (ip), vehicle: saline with Tween-80 88 % of control

COC(=O)c1ccccc1NC(=O)Nc1cccc(F)c1
inactive: dose: 100.0 mg/kg/injection, schedule: Q01DX009 (ip), vehicle: Klucel (hydroxypropylcellulose) (HPC) 95 % of control | dose: 200.0 mg/kg/injection, schedule: Q01DX009 (ip), vehicle: Klucel (hydroxypropylcellulose) (HPC) 101 % of control | dose: 400.0 mg/kg/injection, schedule: Q01DX009 (ip), vehicle: Klucel (hydroxypropylcellulose) (HPC) 113 % of control

O=C(CC(O)(C(F)(F)Cl)C(F)(F)Cl)c1cccs1
inactive: [4] 101 % of control | [5] 108 % of control | [6] 101 % of control | [7] 114 % of control | [8] 98 % of control | [9] 98 % of control | [10] 98 % of control

CNc1ccccc1CCc1ccccc1CO
inactive: [3] 89 % of control

CC(=O)OC1CCC2C3CCC4=CC(=O)C(C(O)(C(F)(F)F)C(F)(F)F)CC4(C)C3CCC12C (stereo unspecified)
inactive: dose: 100.0 mg/kg/injection, schedule: Q01DX001 (sc), vehicle: steriod suspending solution 106 % of control | dose: 200.0 mg/kg/injection, schedule: Q01DX001 (sc), vehicle: steriod suspending solution 101 % of control | dose: 400.0 mg/kg/injection, schedule: Q01DX001 (sc), vehicle: steriod suspending solution 101 % of control

NC(=S)NN=C1CCCC1
inactive: dose: 6.25 mg/kg/injection, schedule: Q04DX003 (ip), vehicle: saline 96 % of control | dose: 12.5 mg/kg/injection, schedule: Q04DX003 (ip), vehicle: saline 94 % of control | [1] 94 % of control

CC(C)(C)OC(=O)NCCCCC(NC(=O)CNC(=O)C(CSC(c1ccccc1)(c1ccccc1)c1ccccc1)NC(=O)OC(C)(C)C)C(=O)O (stereo unspecified) (Boc-Cys(Trt)-Gly-Lys(Boc)-OH; configuration not given here)
inactive: dose: 25.0 mg/kg/injection, schedule: Q04DX003 (ip), vehicle: saline with Tween-80 96 % of control | [4] 98 % of control | [6] 94 % of control

CC(=O)c1ccc(Nc2ccnc3cc(Cl)ccc23)cc1
inactive: dose: 75.0 mg/kg/injection, schedule: Q01DX001 (ip), vehicle: other 109 % of control | dose: 150.0 mg/kg/injection, schedule: Q01DX001 (ip), vehicle: other 96 % of control | dose: 300.0 mg/kg/injection, schedule: Q01DX001 (ip), vehicle: other 91 % of control

Cc1ccc(-n2c(O)c(N=Nc3ccc(Br)cc3)c(=O)n(-c3ccc(I)cc3)c2=S)cc1
inactive: dose: 50.0 mg/kg/injection, schedule: Q01DX001 (ip), vehicle: Klucel (hydroxypropylcellulose) (HPC) 100 % of control | dose: 100.0 mg/kg/injection, schedule: Q01DX001 (ip), vehicle: Klucel (hydroxypropylcellulose) (HPC) 109 % of control | dose: 200.0 mg/kg/injection, schedule: Q01DX001 (ip), vehicle: Klucel (hydroxypropylcellulose) (HPC) 106 % of control

CC1(C)OCC(C2OC(C)(C)OC2C2COC(C)(C)O2)O1 (stereo unspecified)
inactive: dose: 87.5 mg/kg/injection, schedule: Q04DX002 (ip), vehicle: saline 100 % of control | dose: 175.0 mg/kg/injection, schedule: Q04DX002 (ip), vehicle: saline 97 % of control | dose: 350.0 mg/kg/injection, schedule: Q04DX002 (ip), vehicle: saline 93 % of control

CCCCCCP(=O)(CCCC)CCCC
inactive: dose: 25.0 mg/kg/injection, schedule: Q04DX002 (ip), vehicle: Klucel (hydroxypropylcellulose) (HPC) 94 % of control | dose: 50.0 mg/kg/injection, schedule: Q04DX002 (ip), vehicle: Klucel (hydroxypropylcellulose) (HPC) 109 % of control | [2] 103 % of control and 109 % of control

C/C=C/c1nc2c(c(=O)n(C)c(=O)n2C)n1C
inactive: dose: 50.0 mg/kg/injection, schedule: Q01DX001 (ip), vehicle: carboxymethylcellulose (CMC) 106 % of control | dose: 100.0 mg/kg/injection, schedule: Q01DX001 (ip), vehicle: carboxymethylcellulose (CMC) 95 % of control | dose: 200.0 mg/kg/injection, schedule: Q01DX001 (ip), vehicle: carboxymethylcellulose (CMC) 103 % of control | dose: 400.0 mg/kg/injection, schedule: Q01DX001 (ip), vehicle: carboxymethylcellulose (CMC) 97 % of control

Cc1noc(N)c1-n1c(C)ccc1C
inactive: [5] 102 % of control | [6] 100 % of control | [7] 105 % of control | [8] 98 % of control | [9] 100 % of control | [10] 94 % of control

Nc1ccc(P(=O)(O)c2ccc(N)cc2)cc1
inactive: dose: 75.0 mg/kg/injection, schedule: Q01DX001 (ip), vehicle: carboxymethylcellulose (CMC) 94 % of control | dose: 150.0 mg/kg/injection, schedule: Q01DX001 (ip), vehicle: carboxymethylcellulose (CMC) 97 % of control | dose: 300.0 mg/kg/injection, schedule: Q01DX001 (ip), vehicle: carboxymethylcellulose (CMC) 103 % of control

O=C(O)C1C2C=Cc3ccccc3C21 (stereo unspecified)
inactive: dose: 400.0 mg/kg/injection, schedule: Q01DX001 (ip), vehicle: saline 90 % of control

Cc1cnc2c(Nc3ccc(Cl)cc3)cc(N)nc2n1
inactive: dose: 12.5 mg/kg/injection, schedule: Q01DX001 (ip), vehicle: other 94 % of control | dose: 25.0 mg/kg/injection, schedule: Q01DX001 (ip), vehicle: other 96 % of control | dose: 25.0 mg/kg/injection, schedule: Q04DX003 (ip), vehicle: Klucel (hydroxypropylcellulose) (HPC) 96 % of control | dose: 50.0 mg/kg/injection, schedule: Q01DX001 (ip), vehicle: other 94 % of control and 105 % of control | dose: 50.0 mg/kg/injection, schedule: Q01DX009 (ip), vehicle: Klucel (hydroxypropylcellulose) (HPC) 94 % of control | dose: 50.0 mg/kg/injection, schedule: Q04DX003 (ip), vehicle: Klucel (hydroxypropylcellulose) (HPC) 101 % of control

NC(=S)N/N=C/c1ccns1
inactive: dose: 100.0 mg/kg/injection, schedule: Q04DX002 (ip), vehicle: saline with Tween-80 109 % of control | dose: 200.0 mg/kg/injection, schedule: Q04DX002 (ip), vehicle: saline with Tween-80 97 % of control | dose: 400.0 mg/kg/injection, schedule: Q04DX002 (ip), vehicle: saline with Tween-80 103 % of control

O=C1c2ccccc2C(=O)N1CCCN1C(=O)c2ccccc2C1=O
inactive: dose: 100.0 mg/kg/injection, schedule: Q01DX001 (ip), vehicle: saline with Tween-80 111 % of control | dose: 100.0 mg/kg/injection, schedule: Q04DX002 (ip), vehicle: gum acacia 104 % of control | dose: 200.0 mg/kg/injection, schedule: Q01DX001 (ip), vehicle: saline with Tween-80 102 % of control | dose: 200.0 mg/kg/injection, schedule: Q04DX002 (ip), vehicle: gum acacia 96 % of control | dose: 400.0 mg/kg/injection, schedule: Q01DX001 (ip), vehicle: saline with Tween-80 100 % of control | dose: 400.0 mg/kg/injection, schedule: Q04DX002 (ip), vehicle: gum acacia 93 % of control

Cc1cccc(NC(=S)N(C)C)c1
inactive: [5] 99 % of control | [7] 101 % of control | [9] 94 % of control

Cc1ccc(NS(=O)(=O)c2ccc3ccccc3c2)c(C)c1
inactive: [5] 106 % of control | [6] 89 % of control | [7] 112 % of control | [8] 102 % of control | [9] 107 % of control | [10] 89 % of control
